According to the supplement of paper PMC10307832:

Key:
Assay in all cases: relative viability (nuclei count vs DMSO), 5 days (fraction); higher = more cells survive
Nelarabine + Vorinostat = compound: COc1nc(N)nc2c1ncn2[C@@H]1O[C@H](CO)[C@@H](O)[C@@H]1O [Nelarabine] + O=C(CCCCCCC(=O)Nc1ccccc1)NO [Vorinostat] (partner 1 µM)
Outline: (§1)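 Relative viability is defined as nuclei in treated wells over nuclei in vehicle wells. Duplicate plates were run and medians reported. Lung cancer cell lines in 1536-well plates were dosed by pin tool one day after seeding, with one drug or with a fixed anchor-drug dose plus five library-drug doses (not always all listed) in √10 steps, and nuclei were counted after 5 days.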

Adavosertib + Crizotinib = compound: C=CCn1c(=O)c2cnc(Nc3ccc(N4CCN(C)CC4)cc3)nc2n1-c1cccc(C(C)(C)O)n1 [Adavosertib] + C[C@@H](Oc1cc(-c2cnn(C3CCNCC3)c2)cnc1N)c1c(Cl)ccc(F)c1Cl [Crizotinib] (partner 1 µM)
Outline: as §1

Nelarabine + Bortezomib = compound: COc1nc(N)nc2c1ncn2[C@@H]1O[C@H](CO)[C@@H](O)[C@@H]1O [Nelarabine] + CC(C)C[C@H](NC(=O)[C@H](Cc1ccccc1)NC(=O)c1cnccn1)B(O)O [Bortezomib] (partner 0.002 µM)
Outline: as §1

[1] = compound: C=CCn1c(=O)c2cnc(Nc3ccc(N4CCN(C)CC4)cc3)nc2n1-c1cccc(C(C)(C)O)n1 [Adavosertib] + CC(=O)c1c(C)c2cnc(Nc3ccc(N4CCNCC4)cn3)nc2n(C2CCCC2)c1=O [Palbociclib] (partner 0.5 µM)
Outline: as §1

Row | Cell Line | relative viability (Nelarabine + Vorinostat; first compound 0.01 µM) | relative viability (Nelarabine + Vorinostat; first compound 0.03162 µM) | relative viability (Nelarabine + Vorinostat; first compound 0.1 µM) | relative viability (Nelarabine + Vorinostat; first compound 0.3162 µM) | relative viability (Nelarabine + Vorinostat; first compound 1 µM) | relative viability (Adavosertib + Crizotinib; first compound 0.01 µM) | relative viability (Adavosertib + Crizotinib; first compound 0.03162 µM) | relative viability (Adavosertib + Crizotinib; first compound 0.1 µM) | relative viability (Adavosertib + Crizotinib; first compound 0.3162 µM) | relative viability (Nelarabine + Bortezomib; first compound 0.01 µM) | relative viability (Nelarabine + Bortezomib; first compound 0.03162 µM) | relative viability (Nelarabine + Bortezomib; first compound 0.1 µM) | relative viability (Nelarabine + Bortezomib; first compound 0.3162 µM) | relative viability (Nelarabine + Bortezomib; first compound 1 µM) | relative viability ([1]; first compound 0.01 µM) | relative viability ([1]; first compound 0.03162 µM) | relative viability ([1]; first compound 0.1 µM) | relative viability ([1]; first compound 0.3162 µM)
1 | LCLC-103H | 0.905 | 0.76 | 0.795 | 0.856 | 0.808 | 1.07 | 0.99 | 1.06 | 1.07 | 1.36 | 1.05 | 1.01 | 1.13 | 1.1 | 0.498 | 0.478 | 0.469 | 0.464
2 | HARA | 0.658 | 0.543 | 0.532 | 0.581 | 0.544 | 1 | 1.06 | 1.04 | 0.354 | 1.19 | 1.08 | 1.16 | 1.21 | 1.02 | 0.21 | 0.271 | 0.349 | 0.265
3 | NCI-H1755 | 0.954 | 0.742 | 0.682 | 0.861 | 0.873 | 0.885 | 0.882 | 0.911 | 0.739 | 1.02 | 0.971 | 0.947 | 1.03 | 1.03 | 0.449 | 0.41 | 0.443 | 0.446
4 | LXF-289 | 0.84 | 0.698 | 0.674 | 0.807 | 0.662 | 0.8 | 0.841 | 0.88 | 0.849 | 1.13 | 0.99 | 0.995 | 1 | 1.01 | 0.576 | 0.619 | 0.656 | 0.735
5 | HCC-44 | 1.11 | 1.02 | 1.05 | 1.01 | 1.07 | 0.827 | 0.856 | 0.946 | 0.949 | 1.05 | 0.845 | 0.866 | 0.924 | 0.924 | 0.989 | 1.01 | 1.03 | 0.966
6 | HOP-62 | 0.783 | 0.618 | 0.669 | 0.708 | 0.638 | 0.986 | 0.905 | 1.04 | 0.955 | 1.46 | 0.392 | 1.11 | 1.18 | 1.02 | 0.496 | 0.513 | 0.59 | 0.486
7 | NCI-H2126 | 0.945 | 0.803 | 0.689 | 0.691 | 0.816 | 1.05 | 1.01 | 1.08 | 1.07 | 1.18 | 1.14 | 1.11 | 1.12 | 1.01 | 0.352 | 0.34 | 0.352 | 0.35
8 | NCI-H1355 | 0.665 | 0.673 | 0.544 | 0.679 | 0.705 | 1.04 | 0.985 | 1.04 | 0.908 | 1.39 | 1.05 | 1.25 | 1.32 | 1.37 | 0.417 | 0.401 | 0.395 | 0.408
